Results published in patent US12649907B2, “Alternate detergents for viral inactivation” (AMGEN INC., priority 2019, dated 2026).

Tests used:
xMuLV [1] = type: cell-based, xenotropic murine leukemia virus; conditions: initial screen, 10× CMC or 10% w/v, 30 minutes, 15° C., 5% virus spike, PG4 cells
xMuLV [2] = assay: Concentration study, lowest concentration to inactivate virus; type: cell-based, xenotropic murine leukemia virus; conditions: 15° C., 30-minute incubation
PRV = type: cell-based, pseudorabies herpes virus
MMV = assay: Concentration study, lowest concentration to inactivate virus; type: cell-based, mouse minute virus
xMuLV [3] = assay: Temperature-dependent study, TCID50 LRV in host cell culture fluid matrices; type: cell-based, xenotropic murine leukemia virus; conditions: for LRV BiTE ® / LRV fusion protein / LRV mAb: 30 minutes, 5× CMC; for Viral inactivation in the presence of therapeutic modalities: between 30 seconds and 30 minutes, temperatures as low as 5° C. and 15° C.; for Inactivation at 30 minutes at both 5° C. and 15° C.: mAb, BiTE ®, fusion protein matrices
xMuLV [4] = assay: Kinetic study of detergents, TCID50 LRV in host cell culture fluid matrices; type: cell-based, xenotropic murine leukemia virus
[5] = Turbidity of detergent spiked HCCF; type: physicochemical; conditions: HCCF spiked at five times CMC, room temperature 5 days and 2-8° C. 7 days
Procedure: Determination of turbidity was used to measure the stability of detergent spiked samples. Increased turbidity of the sample would reflect a precipitation of the protein molecule. 100 mL of harvested cell culture fluid (HCCF) collected from cultures of each molecule were subjected to four conditions: HCCF containing no detergent (control), APO128, APO129 and Triton X-100. The detergents were spiked at five times the detergent's critical micelle concentration (CMC) values, Triton-X: […] Two sample sets were generated for each molecule; one set was kept at room temperature for 5 days. The second set was kept at 2-8° C. for 7 days. The turbidity of each sample was measured using a turbidimeter (Hach Turbidime[…] 46500-00, Loveland, CO) on days 0, 1, 2, 5, and 7.

[6] = as indicated by the Hampton Kit; cited from earlier work

Row | Compound | Viral inactivation towards xMuLV (CPE) (xMuLV [1]) | Cytopathic effects (CPE) at 2.5×CMC (xMuLV [2]) | Cytopathic effects (CPE) at 2.5×CMC (PRV) | Cytopathic effects (CPE) at 2.5×CMC (MMV) | LRV BiTE ® (xMuLV [3]; 5° C.) | LRV fusion protein (xMuLV [3]; 5° C.) | LRV mAb (xMuLV [3]; 5° C.) | LRV BiTE ® (xMuLV [3]; 15° C.) | LRV fusion protein (xMuLV [3]; 15° C.) | LRV mAb (xMuLV [3]; 15° C.) | Viral inactivation in the presence of therapeutic modalities (xMuLV [3]) | Inactivation at 30 minutes at both 5° C. and 15° C. (xMuLV [3]) | LRV 30 s (xMuLV [4]; BiTE ® #1, 15° C.) | LRV 10 min (xMuLV [4]; BiTE ® #1, 15° C.) | LRV 30 min (xMuLV [4]; BiTE ® #1, 15° C.) | LRV 30 s (xMuLV [4]; fusion protein #1, 15° C.) | LRV 10 min (xMuLV [4]; fusion protein #1, 15° C.) | LRV 30 min (xMuLV [4]; fusion protein #1, 15° C.) | LRV 30 s (xMuLV [4]; mAb #1, 15° C.) | LRV 10 min (xMuLV [4]; mAb #1, 15° C.) | further results
1 | Polyoxyethylene(9)dodecyl ether [Anapoe C12E9] | robustly inactivate the virus | showed cytopathic effects (CPE) | showed cytopathic effects (CPE) | showed cytopathic effects (CPE) | ≥3.84 ± 0.33 | ≥4.19 ± 0.25 | ≥3.91 ± 0.30 | ≥3.91 ± 0.43 | ≥4.32 ± 0.36 | ≥4.23 ± 0.38 | complete viral inactivation | complete inactivation | 2.61 ± 0.68 | ≥2.91 ± 0.43 | ≥2.91 ± 0.43 | 2.56 ± 0.60 | ≥3.32 ± 0.36 | ≥3.32 ± 0.36 | ≥3.23 ± 0.00 | ≥3.23 ± 0.00 | Time to complete inactivation of xMuLV (xMuLV [4]; BiTE® #1): ≤ 10 min; Time to complete clearance of xMuLV (xMuLV [4]; all three therapeutic modalities): ≤ 10 min; Time to complete inactivation of xMuLV (xMuLV [4]; fusion protein #1): ≤ 10 min; Time to complete inactivation of xMuLV (xMuLV [4]; mAb #1): 0.5 min; LRV 30 min (xMuLV [4]; mAb #1, 15° C.): ≥3.23 ± 0.00; Precipitation of protein modalities (turbidity) [5]: none of the detergents tested caused precipitation; CMC [6]: 0.05 mM
2 | CCCCCCCCCCCCOCCOCCOCCOCCOCCOCCOCCOCCO [Anapoe C12E8, 3,6,9,12,15,18,21,24-oxtaoxahexatriacontan-1-ol] | robustly inactivate the virus | showed cytopathic effects (CPE) | showed cytopathic effects (CPE) | showed cytopathic effects (CPE) | ≥4.03 ± 0.18 | ≥4.23 ± 0.33 | ≥4.41 ± 0.37 | ≥4.32 ± 0.35 | ≥4.99 ± 0.42 | ≥3.28 ± 0.34 | complete viral inactivation | complete inactivation | ≥3.32 ± 0.35 | ≥3.32 ± 0.35 | ≥3.32 ± 0.35 | ≥3.99 ± 0.42 | ≥3.99 ± 0.42 | ≥3.99 ± 0.42 | ≥3.28 ± 0.34 | ≥3.28 ± 0.34 | LRV 30 min (xMuLV [4]; mAb #1, 15° C.): ≥3.28 ± 0.34; Precipitation of protein modalities (turbidity) [5]: none of the detergents tested caused precipitation; CMC [6]: 0.11 mM
